Seven molecules from patent publication US12421269B2, “SGLT2/DPP4 inhibitor and application thereof” (CGeneTech (Suzhou, China) CO., Ltd., priority 2019, dated 2025) can be followed below.

One test relates to SD Rat. Briefly: Oral glucose tolerance (OGTT) in rats. To be noted: male SD rats, single gavage dose, Canagliflozin 3 mg/kg, test compound 10 mg/kg. The class given is in vivo. The procedure: The animals will be acclimatized in the animal room for 1 week after arrival at the facility.
The animals are fasted for 16 hours in the metabolic cage and given the drug or solvent (5 mL/kg) according to the table above, followed immediately by 50% glucose solution (2 g/kg, 4 mL/kg).
After 1 hour of glucose administration, the animals resumed feeding, and blood samples were collected at 0 min, 20 min, 40 min, 60 min, 90 min and 120 min for blood glucose measurement; urine at 0 to 24 hours was used for urinary glucose (mg/200 g) and urine volume test, respectively.
All values were expressed as mean values. Statistical analysis was performed using Graphpad Prism 6 single factor analysis of variance Tukey's multiple comparison test. The p-value less than 0.05 was considered statistically significant.

For a further test, the target named is T1, Human-SGLT2 (Homo sapiens, UniProt P31639).
T1 sequence (P31639 1-672): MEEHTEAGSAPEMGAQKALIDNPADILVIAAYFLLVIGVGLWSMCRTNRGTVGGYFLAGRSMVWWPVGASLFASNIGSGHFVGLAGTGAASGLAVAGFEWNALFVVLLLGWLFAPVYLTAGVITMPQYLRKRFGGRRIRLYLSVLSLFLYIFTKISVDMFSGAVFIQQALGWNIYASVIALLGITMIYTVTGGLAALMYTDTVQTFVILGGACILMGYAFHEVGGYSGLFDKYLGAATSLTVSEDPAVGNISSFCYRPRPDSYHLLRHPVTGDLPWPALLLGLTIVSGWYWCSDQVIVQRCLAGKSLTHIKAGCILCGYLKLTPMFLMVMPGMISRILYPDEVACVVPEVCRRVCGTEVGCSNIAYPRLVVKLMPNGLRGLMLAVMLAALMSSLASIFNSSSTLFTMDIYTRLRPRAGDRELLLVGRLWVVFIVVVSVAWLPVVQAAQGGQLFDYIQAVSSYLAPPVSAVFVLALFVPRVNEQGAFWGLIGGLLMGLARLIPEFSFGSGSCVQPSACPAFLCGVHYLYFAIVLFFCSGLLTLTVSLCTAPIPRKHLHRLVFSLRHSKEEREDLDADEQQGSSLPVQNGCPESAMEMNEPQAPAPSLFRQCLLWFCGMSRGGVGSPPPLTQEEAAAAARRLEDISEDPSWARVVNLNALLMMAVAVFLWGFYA
Briefly: SGLT2 glucose transport assay ([14C]-labeled glucose uptake). The class given is cell-based. To be noted: cells stably expressing Human-SGLT2, 37° C., 2 hours. The procedure: To test the effect of compounds on the glucose transport activity of SGLT2 transporters by measuring the amount of [^14C]-labeled glucose entering highly expressed Human-SGLT2 cells.
The cells stably expressing Human-SGLT2 used for the experiments were constructed by WuXi AppTec Shanghai. SGLT2 cells were plated in 96-well cell culture plates (Greiner) and cultured overnight at 5% CO2, 37° C.
(§1) Experimental buffer: 10 mM 4-hydroxyethylpiperazine ethanesulfonic acid (HEPES), 1.2 mM magnesium chloride (MgCl2), 4.7 mM potassium chloride (KCl), 2.2 mM calcium chloride (CaCl2) and 120 mM sodium chloride (NaCl).
Termination buffer: 10 mM 4-hydroxyethylpiperazine ethanesulfonic acid (HEPES), 1.2 mM magnesium chloride (MgCl2), 4.7 mM potassium chloride (KCl), 2.2 mM calcium chloride (CaCl2), 120 mM sodium chloride (NaCl) and 1 μM LX4211.
The compounds were diluted with 100% dimethyl sulfoxide (DMSO) at a starting concentration of 10 μM, 8 points of 5-fold serial gradient dilution was made.
6 μM [^14C]-labeled methyl α-D-glucopyranoside was prepared with experimental buffer.
Cells were treated with 49 μL of experimental buffer, 1 μL of gradient-diluted compound, and 50 μL of 6 μM [^14C]-isotope-labeled glucose solution at 37° C. for 2 hours.
The liquid in the wells was aspirated and the cells were washed 3 times with termination buffer.
The cells were lysed with 50 μL of 10% sodium hydroxide solution, and the cell lysate was aspirated into a scintillation tube, and 2 mL of scintillation solution was added.
Readings were taken with an isotope detector (Tricarb).
The data were calculated by GraphPad Prism 5.0 software using the formula: log (inhibitor) vs. response—Variable slope to obtain the IC50 values of the tested compounds, and the experimental results are shown in Table 5.

The target in the next test is T2, Human-SGLT1 (Homo sapiens, UniProt P13866).
T2 sequence (P13866 1-664): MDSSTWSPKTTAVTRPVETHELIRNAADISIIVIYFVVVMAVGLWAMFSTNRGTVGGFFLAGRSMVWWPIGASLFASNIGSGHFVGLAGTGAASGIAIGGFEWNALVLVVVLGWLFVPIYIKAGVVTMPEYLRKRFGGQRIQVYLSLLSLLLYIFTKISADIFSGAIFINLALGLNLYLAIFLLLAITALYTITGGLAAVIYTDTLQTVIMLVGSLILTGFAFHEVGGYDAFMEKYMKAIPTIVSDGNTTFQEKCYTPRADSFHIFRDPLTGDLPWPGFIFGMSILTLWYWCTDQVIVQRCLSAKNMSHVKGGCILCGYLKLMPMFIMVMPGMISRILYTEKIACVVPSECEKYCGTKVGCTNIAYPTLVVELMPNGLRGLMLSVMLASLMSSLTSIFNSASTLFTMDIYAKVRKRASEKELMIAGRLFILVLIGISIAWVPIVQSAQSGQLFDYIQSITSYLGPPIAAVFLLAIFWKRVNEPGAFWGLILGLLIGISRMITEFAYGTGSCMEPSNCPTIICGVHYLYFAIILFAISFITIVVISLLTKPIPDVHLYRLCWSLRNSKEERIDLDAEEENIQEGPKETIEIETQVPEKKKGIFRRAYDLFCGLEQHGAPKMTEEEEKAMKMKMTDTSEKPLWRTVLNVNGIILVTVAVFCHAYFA
Description: SGLT1 glucose transport assay ([14C]-labeled glucose uptake). The test is classed as cell-based. The note with it: cells stably expressing Human-SGLT1, 37° C., 2 hours. The procedure:
To test the effect of compounds on the glucose transport activity of SGLT1 transporters by measuring the amount of [^14C]-labeled glucose entering highly expressed Human-SGLT1 cells.
The cells stably expressing Human-SGLT1 used for the experiments were constructed by WuXi AppTec Shanghai. The SGLT1 cells were plated in Cytostar-T (PerkinElmer) 96-well cell culture plates and cultured overnight at 5% CO2, 37° C.
as §1
The compounds were diluted with 100% dimethyl sulfoxide (DMSO) at a starting concentration of 1 mM, 8 points of 5-fold serial gradient dilution was made.
3 μM [^14C]-labeled methyl α-D-glucopyranoside (Methyl a-D-glucopyranosid) was prepared with experimental buffer.
Cells were treated with 49 μL of experimental buffer, 1 μL of gradient-diluted compound and 50 μL of 3 μM [^14C]-isotope-labeled glucose solution at 37° C. for 2 hours.
Readings were taken with an isotope detector (Micro beta Reader).
The data were calculated by GraphPad Prism 5.0 software using the formula: log(inhibitor) vs. response—Variable slope to obtain the IC50 values of the tested compounds, and the experimental results are shown in Table 5.

Test [1] concerns the target recombinant human dipeptidyl peptidase 4 (rhDPP4) (Homo sapiens, UniProt P27487). Briefly: rhDPP4 inhibitor screening experiment. The class given is biochemical. To be noted: Gly-Pro-aminofluorescein substrate, 1 hour at room temperature. The text has this:
To evaluate the inhibitory activity of compounds against recombinant human dipeptidyl peptidase 4 (rhDPP4) by measuring the half-inhibitory concentration (IC50) values of the compounds. In the experiment, rhDPP4 was used to catalyze the generation of […] from substrate, the substrate was a luminescent precursor […], and the substrate and luciferase were reacted to generate a light signal, the intensity of the light signal was proportional to the enzyme activity.
• 1) The gradient diluted compounds (4-fold fold-dilution, 10 assay concentrations) were transferred 250 nL into a 384-well plate (PerkingElmer-6007299) using a non-contact nano-acoustic pipetting system (ECHO), and dimethyl sulfoxide (DMSO) concentration was 0.5% in the final reaction system. Blank control wells (containing DMSO, substrate and 10 mM Tris-HCl) and positive control wells (containing DMSO, substrate and rhDPP4) were set up. • 2) The pre-dispensed frozen buffer containing luciferase was removed and restored to room temperature, and then the substrate was added to configure a working solution with a substrate concentration of 20 μM. RhDPP4 was prepared as a working solution of 0.2 ng/mL using 10 mM Tris-HCl (pH 8.0) aqueous solution. • 3) 25 μL of working solution containing 20 μM substrate and 25 μL of working solution containing 0.2 ng/mL rhDPP4 were added to a 384-well plate with the addition of the compound, then the mixture was centrifuged for 30 s at 1000 rpm, the plate was sealed with aluminum foil sealing film and incubated for 1 hour at room temperature. • 4) The intensity of the light signal was detected by EnVision, a multifunctional microplate reader. The raw data were used to calculate the inhibition of rhDPP4 activity by the compound. % of inhibition activity=100−(compound well signal value−blank control well signal value)/(positive control well signal value−blank control well signal value)*100. • The percent of inhibition was imported into GraphPad Prism software for data processing to derive the corresponding dose-effect curves and to derive the IC50 values of the tested compounds.

pIC50: −log10 of the molar value. Marks after values point to notes of the source that are not given here.

Usually pIC50 stands for the IC50 on a negative log10 scale, so that one unit is a factor of ten.

Chain of recombinant human dipeptidyl peptidase 4 (rhDPP4) (P27487 whole entry): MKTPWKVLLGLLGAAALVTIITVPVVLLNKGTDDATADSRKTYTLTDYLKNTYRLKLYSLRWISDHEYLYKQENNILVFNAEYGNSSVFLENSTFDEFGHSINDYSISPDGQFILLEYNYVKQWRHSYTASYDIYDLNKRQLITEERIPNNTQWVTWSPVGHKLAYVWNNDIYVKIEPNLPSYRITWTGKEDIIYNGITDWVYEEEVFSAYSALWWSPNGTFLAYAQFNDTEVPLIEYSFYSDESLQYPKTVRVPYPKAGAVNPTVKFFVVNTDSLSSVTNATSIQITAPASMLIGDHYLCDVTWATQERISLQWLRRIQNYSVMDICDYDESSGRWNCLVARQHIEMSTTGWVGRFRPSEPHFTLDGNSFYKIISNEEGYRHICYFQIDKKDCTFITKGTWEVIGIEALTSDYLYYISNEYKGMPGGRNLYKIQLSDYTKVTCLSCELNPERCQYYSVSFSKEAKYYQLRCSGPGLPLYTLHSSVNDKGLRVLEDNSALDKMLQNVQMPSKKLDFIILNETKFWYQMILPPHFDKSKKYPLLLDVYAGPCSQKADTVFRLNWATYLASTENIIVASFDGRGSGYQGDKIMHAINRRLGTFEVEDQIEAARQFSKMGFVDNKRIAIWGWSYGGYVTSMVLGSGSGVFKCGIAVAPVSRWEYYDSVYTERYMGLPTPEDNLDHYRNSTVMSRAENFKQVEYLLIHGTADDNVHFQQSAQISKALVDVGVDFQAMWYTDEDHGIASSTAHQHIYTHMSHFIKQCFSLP

In the test with SD Rat (glucose 2 g/kg), `Cc1ccc([C@@H]2O[C@H](CO)[C@@H](O)[C@H](O)[C@H]2O)cc1Cc1ccc(-c2ccc(F)cc2)s1` [Canagliflozin, reference compound] registered an OGTT blood glucose levels AUC0-2hr of 945 mmol/L/min. Besides, in the test on SD Rat (urine 0 to 24 hours), the Urinary glucose level was 1317**** mg/200 gBW and the Urine volume was 24.4*** mL/200 gBW.
For the molecule `CS[C@H]1O[C@@H](c2cc(Cc3ccc(O[C@@H]4CCN([C@H]5CO[C@H](c6cc(F)ccc6F)[C@@H](N)C5)C4)cc3)c(Cl)cc2C)[C@H](O)[C@@H](O)[C@@H]1O` [WX002], the pIC50 was 8.32 at Human-SGLT2, 6.73 on Human-SGLT1 and 6.98 in test [1].
On the same counts, the results for `CS[C@H]1O[C@@H](c2ccc(Cl)c(Cc3ccc(O[C@@H]4CCN([C@H]5CO[C@H](c6cc(F)ccc6F)[C@@H](N)C5)C4)cc3)c2C)[C@H](O)[C@@H](O)[C@@H]1O` [WX003] are 6.48, 6.01 and 6.95.
For `CS[C@H]1O[C@@H](c2cc(C)c(Cl)c(Cc3ccc(OC4CCN([C@H]5CO[C@H](c6cc(F)ccc6F)[C@@H](N)C5)C4)cc3)c2)[C@H](O)[C@@H](O)[C@@H]1O` (some centres unmarked) [WX004], in that order: 8.22, 7.48 and 6.78.
On the same counts, the results for `CS[C@H]1O[C@@H](c2cccc(Cc3ccc(OC4CCN([C@H]5CO[C@H](c6cc(F)ccc6F)[C@@H](N)C5)C4)cc3)c2)[C@H](O)[C@@H](O)[C@@H]1O` (some centres unmarked) [WX005] are 8.30, 7.55 and 6.94.
As for `COc1cc(F)c(Cc2ccc(O[C@@H]3CCN([C@H]4CO[C@H](c5cc(F)ccc5F)[C@@H](N)C4)C3)cc2)cc1[C@@H]1O[C@H](SC)[C@@H](O)[C@H](O)[C@H]1O` [WX007], the pIC50 against Human-SGLT2 was 7.70; at Human-SGLT1, 5.68; in test [1], 7.49.
Take `CS[C@H]1O[C@@H](c2cc(Cc3ccc(O[C@@H]4CCN([C@H]5CO[C@H](c6cc(F)ccc6F)[C@@H](N)C5)C4)cc3)c(F)cc2C)[C@H](O)[C@@H](O)[C@@H]1O` [WX008]: the results for the pIC50 at Human-SGLT2 and against Human-SGLT1 were 8.13 and 6.28, respectively.
